Experimental data published in ChEMBL document CHEMBL3085654, “Synthesis and evaluation of N-acylamino acids derivatives of triazenes. Activation by tyrosinase in human melanoma cell lines” (Eur J Med Chem, 2013).
Calls of active or inactive are those of the source. No cut-off for these calls is given here.

Assays:
[1] = tested on: SK-MEL-30; assay: Induction of apoptosis in human SK-MEL-30 cells assessed as apoptotic/necrotic cells at 100 uM after 48 hrs by APC-labeled annexin V and 7-AAD staining-based flow cytometric analysis relative to control; assay type: functional
[2] = tested on: M8; assay: Induction of apoptosis in human M8 cells assessed as apoptotic/necrotic cells at 50 to 100 uM after 48 hrs by APC-labeled annexin V and 7-AAD staining-based flow cytometric analysis; assay type: functional, cell-based
[3] = tested on: MNT1; assay: (§1) Induction of apoptosis in human MNT1 cells assessed as apoptotic/necrotic cells at 100 uM after 48 hrs by APC-labeled annexin V and 7-AAD staining-based flow cytometric analysis relative to control; assay type: functional
[4] = tested on: MNT1; assay: (§2) Induction of apoptosis in human MNT1 cells assessed as apoptotic/necrotic cells at 50 uM after 48 hrs by APC-labeled annexin V and 7-AAD staining-based flow cytometric analysis relative to control; assay type: functional
[5] = tested on: SK-MEL-30; assay: Induction of apoptosis in human SK-MEL-30 cells assessed as apoptotic/necrotic cells at 50 uM after 48 hrs by APC-labeled annexin V and 7-AAD staining-based flow cytometric analysis relative to control; assay type: functional
[6] = Half life in PBS buffer at 10^-5 M at pH 7.4 by HPLC analysis; assay type: ADME
[7] = as §1; assay type: functional
[8] = tested on: MNT1; assay: Induction of apoptosis in human MNT1 cells assessed as apoptotic/necrotic cells after 48 hrs by APC-labeled annexin V and 7-AAD staining-based flow cytometric analysis; assay type: functional, cell-based
[9] = as §2; assay type: functional
[10] = Half life in phosphate buffer assessed as mushroom tyrosinase-mediated prodrug conversion at 10^-5 M at pH 7.4 by HPLC analysis; assay type: ADME; details: agaricus bisporus, pH 7.4, 10 µM
[11] = Octanol-phosphate buffer apparent partition coefficient, log P of the compound at pH7.4 after 30 mins by HPLC analysis; assay type: physicochemical; details: pH 7.4
[12] = Half life in 80% human plasma at 10^-5 M by HPLC analysis; assay type: ADME, cell-free
[13] = Stability in phosphate buffer assessed as mushroom tyrosinase-mediated prodrug conversion at 10^-5 M at pH 7.4 after 1 hr by HPLC analysis in presence of mushroom tyrosinase; assay type: ADME; details: agaricus bisporus, pH 7.4, 1 h, 10 µM
[14] = Chemical stability in PBS buffer at 10^-5 M at pH 7.4 after 15 days by HPLC analysis; assay type: physicochemical; details: pH 7.4, 360 h, 10 µM
[15] = substrate: COC(=O)c1ccc(/N=N/N(C)C(=O)[C@H](Cc2ccc(O)cc2)NC(C)=O)cc1; assay: (§3) Ratio of Kcat to Km for mushroom tyrosinase; details: Agaricus bisporus
[16] = substrate: CC(=O)N[C@@H](Cc1ccc(O)cc1)C(=O)N(C)/N=N/c1ccc(C#N)cc1; assay: as §3; details: Agaricus bisporus
[17] = substrate: NCCc1ccc(O)c(O)c1; assay: (§4) Activity at mushroom tyrosinase by Michaelis-Menten plot analysis; details: Agaricus bisporus
[18] = substrate: N[C@@H](Cc1ccc(O)cc1)C(=O)O; assay: as §4; details: Agaricus bisporus
[19] = substrate: NCCc1ccc(O)cc1; assay: as §4; details: Agaricus bisporus
[20] = substrate: COC(=O)c1ccc(/N=N/N(C)C(=O)[C@H](Cc2ccc(O)cc2)NC(C)=O)cc1; assay: as §4; details: Agaricus bisporus
[21] = substrate: CC(=O)N[C@@H](Cc1ccc(O)cc1)C(=O)N(C)/N=N/c1ccc(C#N)cc1; assay: as §4; details: Agaricus bisporus

In the case of Cn1nnc2c(C(N)=O)ncn2c1=O, the Activity [1] is reported as “Active”, the Activity [2] is reported as “Active” and the Activity [3] is reported as “Active”. The Activity [4] was “Active” and the Activity [5] was “Active”.

For CCOC(=O)c1ccc(/N=N/N(C)C(=O)[C@H](Cc2ccc(O)cc2)NC(C)=O)cc1, the half-life at 10 µM [6] was 70.3 h, the Activity [7] was 21.23% and the Activity [8] was “Dose-dependent effect”. The Activity [9] was 17.46%, the t1/2 [10] was 0.3 h and the logD at 0.5 h [11] was 2.96. It also gave a half-life at 10 µM [12] of 5.32 h.

For CC(=O)N[C@@H](Cc1ccc(O)cc1)C(=O)N(C)/N=N/c1ccc(C(C)=O)cc1, the half-life at 10 µM [6] was 56.6 h, the Activity [7] was 11.23% and the Activity [8] was “Dose-dependent effect”. The Activity [9] was 7.88%, the t1/2 [10] was 0.33 h and the logD at 0.5 h [11] was 2.33. The half-life at 10 µM [12] was 1.41 h.

In the case of COC(=O)c1ccc(/N=N/N(C)C(=O)[C@H](Cc2ccc(O)cc2)NC(C)=O)cc1, the half-life at 10 µM [6] is reported as 75.1 h, the t1/2 [10] is reported as 0.305 h and the logD at 0.5 h [11] is reported as 2.12. It also gave a half-life at 10 µM [12] of 2.8 h.

With CN(/N=N/c1ccc(C#N)cc1)C(=O)[C@H](Cc1ccc(O)cc1)NC(=O)OC(C)(C)C the half-life at 10 µM [6] was 48.5 h, the Stability [13] was “Stable” and the logD at 0.5 h [11] was 3.9. For the same molecule, the half-life at 10 µM [12] was 8.1 h.

In the case of CC(=O)N[C@@H](Cc1ccc(O)cc1)C(=O)N(C)/N=N/c1ccc(C#N)cc1, the Activity [1] is reported as 12.47%, the Activity [2] is reported as “inactive” and the half-life at 10 µM [6] is reported as 42.7 h. The Activity [7] was 17.01%, the Activity [8] was “Dose-dependent effect” and the Activity [9] was 8.5%. The t1/2 [10] was 0.26 h, the logD at 0.5 h [11] was 2.14 and the Activity [5] was 10.41%. It also gave a half-life at 10 µM [12] of 1.23 h.

Work on CC(=O)N[C@@H](Cc1ccc(O)cc1)C(=O)N(C)/N=N/c1ccc(C(N)=O)cc1 yielded a half-life at 10 µM [6] of 40.6 h, a t1/2 [10] of 0.29 h and a logD at 0.5 h [11] of 1.27. The half-life at 10 µM [12] was 5.19 h.

In the case of CC(=O)c1ccc(/N=N/N(C)C(=O)[C@H](Cc2ccc(O)cc2)NC(=O)OC(C)(C)C)cc1, the half-life at 10 µM [6] is reported as 72.2 h, the Stability [13] is reported as “Stable” and the logD at 0.5 h [11] is reported as 3.85. For the same molecule, the half-life at 10 µM [12] was 9.54 h.

With CC(=O)N[C@@H](Cc1ccc(O)cc1)C(=O)N(C)/N=N/c1ccc(Br)cc1 the Stability [14] was “Stable”, the t1/2 [10] was 0.148 h and the logD at 0.5 h [11] was 3.36. The half-life at 10 µM [12] was 6.8 h.

B1: Tyrosinase (Agaricus bisporus), O42713 (protein)
chain: MSLIATVGPTGGVKNRLNIVDFVKNEKFFTLYVRSLELLQAKEQHDYSSFFQLAGIHGLPFTEWAKERPSMNLYKAGYCTHGQVLFPTWHRTYLSVLEQILQGAAIEVAKKFTSNQTDWVQAAQDLRQPYWDWGFELMPPDEVIKNEEVNITNYDGKKISVKNPILRYHFHPIDPSFKPYGDFATWRTTVRNPDRNRREDIPGLIKKMRLEEGQIREKTYNMLKFNDAWERFSNHGISDDQHANSLESVHDDIHVMVGYGKIEGHMDHPFFAAFDPIFWLHHTNVDRLLSLWKAINPDVWVTSGRNRDGTMGIAPNAQINSETPLEPFYQSGDKVWTSASLADTARLGYSYPDFDKLVGGTKELIRDAIDDLIDERYGSKPSSGARNTAFDLLADFKGITKEHKEDLKMYDWTIHVAFKKFELKESFSLLFYFASDGGDYDQENCFVGSINAFRGTAPETCANCQDNENLIQEGFIHLNHYLARDLESFEPQDVHKFLKEKGLSYKLYSRGDKPLTSLSVKIEGRPLHLPPGEHRPKYDHTQARVVFDDVAVHVIN
Molecule B1 has a kcat/Km [15] of 246 M⁻¹ s⁻¹, a kcat/Km [16] of 151 M⁻¹ s⁻¹ and a Km [17] of 280 µM. For the same molecule, the Km [18] was 250 µM, the Km [19] was 540 µM and the Km [20] was 220 µM. The Vmax [20] was 9.7 ×10⁻⁶ mM/min, the kcat [20] was 0.05 s⁻¹ and the Km [21] was 200 µM. The Vmax [21] was 5.4 ×10⁻⁶ mM/min and the kcat [21] was 0.03 s⁻¹.
